Data set [1] in a line: CellTiter-Glo cell viability assay in Vero cells. The settings on record: African green monkey, 72 h exposure. In kind it is cell-based, African green monkey.
In data set [2] the test system is HSV-1. Nature of the data set: Cytopathic effect. In kind it is cell-based, Herpes simplex virus type 1 (strain H129). The settings on record: for IC50: 48 h; for Selective Index: SI = CC50/IC50, CPE reduction assay, Vero cells.
A further data set has as its system Vero cells. Kind of data set: CellTiter-Glo cell viability assay in Vero cells. In kind it is cell-based, African green monkey. The settings on record: 72 h exposure. For orientation: In ATP-based viability assays light output follows the ATP content of the culture.
Data set [3] can be described thus: CellTiter-Glo cell viability assay in HepG2 cells. In kind it is cell-based. The settings on record: human, 72 h exposure.
The next data set relates to HSV-1 IE, E, and L genes. Nature of the data set: HSV-1 IE, E and L gene expression (qRT-PCR and Western blot) in Vero cells. It counts as cell-based, Herpes simplex virus type 1 (strain H129).
Data set [4] can be described thus: CellTiter-Glo cell viability assay in Hela cells. It counts as cell-based. To be noted: human, 72 h exposure.
Data set [5] concerns HSV-1. Kind of data set: Virus attachment assay (IFA, anti-gD). The settings on record: BMS at 0.5, 5, and 50 µM, 4 °C, MOI 10. In kind it is cell-based, Herpes simplex virus type 1 (strain H129).
The test system of data set [6] is HSV-1. Kind of data set: Plaque reduction assay, HSV-1-infected HepG2 cells. It counts as cell-based, Herpes simplex virus type 1 (strain H129). To be noted: Human alphaherpesvirus 1, HSV-1 MOI 0.01, HepG2 cells, 48 h.
The next data set deals with cyclin B-dependent CDK1. To be noted: read-out: in vitro IC50; cited from earlier work.
Another data set concerns HSV-2. Nature of the data set: Anti-HSV-2 activity in Vero cells by plaque assay. It counts as cell-based, Herpes simplex virus type 2 (strain G). The settings on record: HSV-2, Vero cells.
The test system of data set [7] is HSV-1. Nature of the data set: Plaque reduction assay, HSV-1-infected Hela cells. To be noted: Human alphaherpesvirus 1, HSV-1 MOI 0.01, Hela cells, 48 h. It counts as cell-based, Herpes simplex virus type 1 (strain H129).
In data set [8] the test system is HSV-1. Nature of the data set: Plaque reduction assay (viral titer in supernatant), HSV-1-infected Vero cells. In kind it is cell-based, Herpes simplex virus type 1 (strain H129). To be noted: for Viral titer: HSV-1 MOI 0.01, 48 h, supernatant. (Plaque reduction counts the foci of infection that form in a cell layer.)
In the next data set the test system is HSV-1 DNA. Kind of data set: Intracellular and virion-associated HSV-1 DNA levels by real-time PCR. To be noted: Vero cells, MOI 0.01, 24 h, qPCR. It counts as cell-based, Herpes simplex virus type 1 (strain H129).
Data set [9] deals with HSV-1. Nature of the data set: Time-of-addition assay, HSV-1 in Vero cells, plaque assay readout. In kind it is cell-based, Herpes simplex virus type 1 (strain H129).
A further data set has as its system cycle E-dependent CDK2. The settings on record: read-out: in vitro IC50; cited from earlier work.
Data set [10] concerns HSV-1. Nature of the data set: BMS treatment during different time periods of the HSV-1 life cycle. It counts as cell-based, Herpes simplex virus type 1 (strain H129).
Data set [11] has as its system HSV-1. Kind of data set: Virus entry assay (IFA, anti-ICP5). It counts as cell-based, Herpes simplex virus type 1 (strain H129).
A further data set deals with HCMV. More on the design: method as in earlier work. To be noted: cited from earlier work.
Setting [12] is: Human alphaherpesvirus 1, HSV-1 MOI 0.01, Vero cells, CPE reduction, ND = Not detectable, read-out: IC50.

As for `CCN1CCN(Cc2ccc(Nc3ncc(F)c(-c4cc(F)c5nc(C)n(C(C)C)c5c4)n3)nc2)CC1` [Abemaciclib], the CC50 (in general, the concentration that lowers cell viability or growth by half) at 72 h in data set [1] was 29.1 µM. That is a double-digit micromolar value.

The compound `Nc1nc2c(ncn2COCCO)c(=O)[nH]1` [Acyclovir, acyclovir] displayed a CC50 at 72 h in data set [1] of over 100 µM. In the data set on HSV-1 [2] (setting [12]), the IC50 (in general, the midpoint of a concentration-inhibition curve) amounted to 0.42 µM. Besides, in the data set with HSV-1 [2], the “Selective Index” value is listed as over 238.10.

Regarding `CC(=O)Nc1cc(Oc2ccc3c(C(=O)Nc4ccc(CN5CCN(C)CC5)c(C(F)(F)F)c4)cccc3c2)ncn1` [BGG463], the CC50 in the data set on Vero cells is 18.5 µM.

For `CCCCOc1c(C(=O)c2c(F)cc(C)cc2F)c[nH]c2nncc1-2` [BMS-265246], the 50% cytotoxic concentration (CC50) at 72 h in data set [3] is over 500 µM; in [4], 189 µM; in data set [1] it was over 500 µM. Also, the “transcripts of the IE gene ICP27, the E gene ICP8, and the L gene gD” value in the data set on HSV-1 IE, E, and L genes (MOI 0.01, qRT-PCR at 4, 8, and 20 hpi) is “concentration-dependently suppressed”. Besides, the “protein levels of ICP4, ICP8, ICP5, and gB” value with HSV-1 IE, E, and L genes (Western blot at 24 hpi) is “reduced by BMS concentration-dependently”. For the same compound, the “binding of HSV-1 to Vero cells” value with HSV-1 [5] is listed as “did not affect the binding”. Also, the IC50 is 1.03 µM in the data set with HSV-1 [6]; 0.006 µM with cyclin B-dependent CDK1; 1.06 µM with HSV-2 (Human alphaherpesvirus 2, plaque assay); 0.18 µM in the data set with HSV-1 [7]; 0.95 µM in the data set with HSV-1 [8] (Human alphaherpesvirus 1, HSV-1 MOI 0.01, Vero cells, 48 h, plaque assay); 0.009 µM in the data set on cycle E-dependent CDK2. Besides, the IC50 in the data set with HSV-1 [2] (Human alphaherpesvirus 1, Vero) worked out at 0.08 µM. Also, the Selective Index is over 472 with HSV-2 (CC50/IC50) and over 6250 in the data set with HSV-1 [2]. The Viral titer in the data set with HSV-1 [8] (BMS 0.02 μM) is given as 5.90 log10PFU/mL; in the data set with HSV-1 [8] (BMS 0.07 μM) it was 5.87 log10PFU/mL; in the data set on HSV-1 [8] (BMS 0.21 μM), 5.85 log10PFU/mL; in the data set on HSV-1 [8] (BMS 0.62 μM), 5.76 log10PFU/mL; with HSV-1 [8] (BMS 1.85 μM), 5.01 log10PFU/mL; in the data set with HSV-1 [8] (BMS 5.56 μM), 3.40 log10PFU/mL. Further, the Viral titer in the data set on HSV-1 [8] (BMS 16.67 μM) was 2.60 log10PFU/mL; in the data set on HSV-1 [8] (BMS 50 μM), 2.24 log10PFU/mL. Moreover, the “intracellular HSV-1 DNA levels” value in the data set on HSV-1 DNA (Hirt method) is given as “decreases concentration-dependently”. Also, in the data set on HSV-1 DNA (supernatant), the “virion-associated HSV-1 viral DNA levels” value was “reduced concentration-dependently”. In addition, in the data set with HSV-1 [9] (pretreatment of the cells), the “production of progeny virions” value is “significantly reduced”. For the same compound, the viral titer reduction result in the data set with HSV-1 [9] (treatment started at 4 or 10 hpi until harvesting) is “less than one logarithm”. Besides, the “virus production (plaque assay)” value in the data set on HSV-1 [10] (50 μM BMS at 5–10 and 10–15 hpi, MOI 0.1, 30 h of infection) is recorded as “significantly suppress virus production”. Further, in the data set with HSV-1 [10] (50 μM BMS during 0–5, 5–10, 10–15, or 15–20 hpi, MOI 1, Vero cells), the “transcription of ICP27, ICP8, and gD” value is on record as “dramatically suppresses”. For the same compound, the “entry of HSV-1 to Vero cells” value in the data set with HSV-1 [11] (BMS at 0.5, 5, and 50 µM, 37 °C 30 min, MOI 10) was “did not affect the entry”. For the same compound, in the data set on HSV-1 [11] (Vero cells, MOI 10, 1, 2, 3, and 4 h at 37 °C), the “expression of ICP5 (IFA over 1-4 hpi)” value is recorded as “the expression of ICP5 was prevented”.

As to `COC(=O)[C@]1(Cc2ccc(O)c(CC=C(C)C)c2)OC(=O)C(O)=C1c1ccc(O)cc1` [Butyrolactone I], half-maximal cytotoxicity in [1] (CC50 at 72 h) was put at 151 µM.

`CCn1cnc2c(Nc3cccc(Cl)c3)nc(N[C@@H]3CCCC[C@@H]3N)nc21` [CGP74514A]: the “reduction of HCMV replication compared with untreated controls” value with HCMV was ~ 300 fold.

In the case of `COc1ccc(CNc2nc(N(CCO)CCO)nc3c2ncn3C(C)C)cc1` [CVT-313], the CC50 in the data set on Vero cells amounted to 6.38 µM.

The compound `CCc1cnn2c(NCc3ccc[n+]([O-])c3)cc(N3CCCC[C@H]3CCO)nc12` [Dinaciclib] yielded a CC50 at 72 h in data set [1] of 1.13 µM.

Compound `CN1CC[C@H](c2c(O)cc(O)c3c(=O)cc(-c4ccccc4Cl)oc23)[C@H](O)C1` [Flavopiridol] showed a CC50 at 72 h in [1] of 0.16 µM. This CC50 at 72 h is about 7.1-fold lower than that of the compound before.

Consider `COc1ccccc1-c1cc(Nc2cccc(CS(N)(=O)=O)c2)ncn1` [LDC000067], for which it took 14.4 µM to reach half-maximal cytotoxicity with Vero cells (CC50).

`Cc1n[nH]c2ncc(C(=O)N3CCC[C@H]3c3ccc(Cl)cc3)cc12` [MSC2530818]: the CC50 at 72 h in data set [1] worked out at 138 µM. Moreover, the IC50 in the data set on HSV-1 [2] (setting [12]) is 25 µM. Further, the “Selective Index” value in the data set on HSV-1 [2] was 5.54.

The compound `C=CS(=O)(=O)c1ccc(Nc2nc(OCC3CCCCC3)c3[nH]cnc3n2)cc1` [NU6300] registered a CC50 with Vero cells of 13.8 µM.

Turning to `Nc1cc(Nc2ccc(S(N)(=O)=O)cc2)ncn1` [PNU112455A], the CC50 in the data set on Vero cells came to 156 µM. This CC50 is about 11-fold higher than that of the compound before.

The compound `CC(C)[C@H](CO)Nc1nc(Nc2ccc(C(=O)O)c(Cl)c2)c2ncn(C(C)C)c2n1` [Purvalanol B] registered a CC50 at 72 h in data set [1] of 73.5 µM.

With `O=C1NC(=NCc2cccs2)S/C1=C\c1ccc2ncccc2c1` [Ro-3306], the CC50 with Vero cells came out at 14.1 µM.

In data set [1], `CC[C@H](CO)Nc1nc(NCc2ccccc2)c2ncn(C(C)C)c2n1` [Seliciclib] registered a CC50 at 72 h of 18.5 µM.

Consider `CN(C)C/C=C/C(=O)Nc1cccc(C(=O)Nc2cccc(Nc3ncc(Cl)c(-c4c[nH]c5ccccc45)n3)c2)c1` [THZ2], for which the midpoint of cytotoxicity in the data set on Vero cells, the CC50, lay at 0.42 µM.
